Experimental data published in patent publication US7138361B2, “Herbicidal heterocycles” (E. I. du Pont de Nemours and Company, priority 2000, dated 2006).

Columns and labels:
Type in all cases: in vivo
[1] = test system: Surinam grass (Brachiaria decumbens); experiment: Test B postemergence; details: 13 to 15 days
How it was run: (§1)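 Visual injury scores, 0 = no effect to 100 = complete control, assigned against controls after 13 to 15 days in the greenhouse. Compounds formulated in non-phytotoxic solvent plus surfactant and applied to soil after planting (pre) or onto foliage of 1- to 4-leaf plants (post).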

[2] = test system: barnyardgrass (Echinochloa crus-galli); experiment: Test B postemergence; details: 13 to 15 days
How it was run: as §1

[3] = test system: blackgrass (Alopecurus myosuroides); experiment: Test B postemergence; details: 13 to 15 days
How it was run: as §1

[4] = test system: cocklebur (Xanthium strumarium); experiment: Test B postemergence; details: 13 to 15 days
How it was run: as §1

[5] = test system: corn (Zea mays); experiment: Test B postemergence; details: 13 to 15 days
How it was run: as §1

[6] = test system: crabgrass (Digitaria sanguinalis); experiment: Test B postemergence; details: 13 to 15 days
How it was run: as §1

[7] = test system: giant foxtail (Setaria faberii); experiment: Test B postemergence; details: 13 to 15 days
How it was run: as §1

[8] = test system: lambsquarters (Chenopodium album); experiment: Test B postemergence; details: 13 to 15 days
How it was run: as §1

[9] = test system: morning glory (Ipomoea hederacea); experiment: Test B postemergence; details: 13 to 15 days
How it was run: as §1

[10] = test system: pigweed (Amaranthus retroflexus); experiment: Test B postemergence; details: 13 to 15 days
How it was run: as §1

[11] = test system: velvetleaf (Abutilon theophrasti); experiment: Test B postemergence; details: 13 to 15 days
How it was run: as §1

[12] = test system: wheat (Triticum aestivum); experiment: Test B postemergence; details: 13 to 15 days
How it was run: as §1

[13] = test system: wild oat (Avena fatua); experiment: Test B postemergence; details: 13 to 15 days
How it was run: as §1

[14] = test system: Surinam grass (Brachiaria decumbens); experiment: Test B preemergence; details: scale 0 to 100, 0 no effect, 100 complete control
How it was run: as §1

[15] = test system: barnyardgrass (Echinochloa crus-galli); experiment: Test B preemergence; details: scale 0 to 100, 0 no effect, 100 complete control
How it was run: as §1

[16] = test system: cocklebur (Xanthium strumarium); experiment: Test B preemergence; details: scale 0 to 100, 0 no effect, 100 complete control
How it was run: as §1

[17] = test system: corn (Zea mays); experiment: Test B preemergence; details: scale 0 to 100, 0 no effect, 100 complete control
How it was run: as §1

[18] = test system: crabgrass (Digitaria sanguinalis); experiment: Test B preemergence; details: scale 0 to 100, 0 no effect, 100 complete control
How it was run: as §1

[19] = test system: giant foxtail (Setaria faberii); experiment: Test B preemergence; details: scale 0 to 100, 0 no effect, 100 complete control
How it was run: as §1

[20] = test system: lambsquarters (Chenopodium album); experiment: Test B preemergence; details: scale 0 to 100, 0 no effect, 100 complete control
How it was run: as §1

[21] = test system: morning glory (Ipomoea hederacea); experiment: Test B preemergence; details: Preemergence, Rate 500 g/ha; scale 0 to 100, 0 no effect, 100 complete control
How it was run: as §1

[22] = test system: pigweed (Amaranthus retroflexus); experiment: Test B preemergence; details: Preemergence, Rate 500 g/ha; scale 0 to 100, 0 no effect, 100 complete control
How it was run: as §1

[23] = test system: rice (Oryza saliva); experiment: Test B preemergence; details: Preemergence, Rate 500 g/ha; scale 0 to 100, 0 no effect, 100 complete control
How it was run: as §1

[24] = test system: velvetleaf (Abutilon theophrasti); experiment: Test B preemergence; details: Preemergence, Rate 500 g/ha; scale 0 to 100, 0 no effect, 100 complete control
How it was run: as §1

[25] = test system: smallflower flatsedge (Cyperus difformis); experiment: Test C flooded paddy test; details: for Flatsedge plant response rating: Flooded Paddy, scale 0 to 100, 0 no effect, 100 complete control; for Plant response rating, Flatsedge / Plant response rating (scale 0 to 100), Flatsedge: flooded paddy test; for Plant response rating, Flatsedge: scale 0 to 100 (0 no effect, 100 complete control)
How it was run: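 Visually assessed vs untreated controls 12–14 d post-treatment (greenhouse). Flooded paddy plants were at the 2-leaf stage; scale 0 = no effect, 100 = complete control.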

[26] = Rate 125 g/ha, scale 0 (no effect) to 100 (complete control)
[27] = Rate 500 g/ha, scale 0 to 100, 0 is no effect, 100 is complete control

With `COc1cc(N2CCC(n3ccc(C(C)(C)C)n3)C2=O)ccc1C` (stereo not shown) [Compound 42] the “Plant response rating, Surinam grass” value [1, 26] was 0, the “Plant response rating, Surinam grass” value [1, 27] was 0 and the “Plant response rating, Barnyardgrass” value [2, 26] was 60. The “Plant response rating, Barnyardgrass” value [2, 27] was 100, the “Plant response rating, Blackgrass” value [3, 26] was 0 and the “Plant response rating, Blackgrass” value [3, 27] was 50. For the same molecule, the “Plant response rating, Cocklebur” value [4, 26] was 40, the “Plant response rating, Cocklebur” value [4, 27] was 60 and the “Plant response rating, Corn” value [5, 26] was 0. For the same molecule, the “Plant response rating, Corn” value [5, 27] was 40, the “Plant response rating, Crabgrass” value [6, 26] was 50 and the “Plant response rating, Crabgrass” value [6, 27] was 80. For the same molecule, the “Plant response rating, Foxtail, Giant” value [7, 26] was 50, the “Plant response rating, Foxtail, Giant” value [7, 27] was 70 and the “Plant response rating, Lambsquarters” value [8, 26] was 70. For the same molecule, the “Plant response rating, Lambsquarters” value [8, 27] was 100, the “Plant response rating, Morningglory” value [9, 26] was 60 and the “Plant response rating, Morningglory” value [9, 27] was 100. The “Plant response rating, Pigweed” value [10, 26] was 80, the “Plant response rating, Pigweed” value [10, 27] was 100 and the “Plant response rating, Velvetleaf” value [11, 26] was 50. For the same molecule, the “Plant response rating, Velvetleaf” value [11, 27] was 80, the “Plant response rating, Wheat” value [12, 26] was 0 and the “Plant response rating, Wheat” value [12, 27] was 0. For the same molecule, the “Plant response rating, Wild Oat” value [13, 26] was 0, the “Plant response rating, Wild Oat” value [13, 27] was 40 and the “Plant response rating, Surinam grass” value ([14]; Preemergence, Rate 500 g/ha) was 100. The “Plant response rating, Surinam grass” value ([14]; preemergence, Rate 125 g/ha) was 90, the “Plant response rating, Barnyardgrass” value ([15]; Preemergence, Rate 500 g/ha) was 100 and the “Plant response rating, Barnyardgrass” value ([15]; preemergence, Rate 125 g/ha) was 100. The “Plant response rating, Cocklebur” value ([16]; Preemergence, Rate 500 g/ha) was 70, the “Plant response rating, Cocklebur” value ([16]; preemergence, Rate 125 g/ha) was 0 and the “Plant response rating, Corn” value ([17]; Preemergence, Rate 500 g/ha) was 20. The “Plant response rating, Corn” value ([17]; preemergence, Rate 125 g/ha) was 20, the “Plant response rating, Crabgrass” value ([18]; Preemergence, Rate 500 g/ha) was 100 and the “Plant response rating, Crabgrass” value ([18]; preemergence, Rate 125 g/ha) was 100. For the same molecule, the “Plant response rating, Foxtail, Giant” value ([19]; Preemergence, Rate 500 g/ha) was 100, the “Plant response rating, Foxtail, Giant” value ([19]; preemergence, Rate 125 g/ha) was 100 and the “Plant response rating, Lambsquarters” value ([20]; Preemergence, Rate 500 g/ha) was 100. The “Plant response rating, Lambsquarters” value ([20]; preemergence, Rate 125 g/ha) was 100, the “Plant response rating, Morningglory” value [21] was 100 and the “Plant response rating, Pigweed” value [22] was 100. For the same molecule, the “Plant response rating, Rice” value [23] was 100, the “Plant response rating, Velvetleaf” value [24] was 90 and the “Flatsedge plant response rating” value ([25]; Rate 250 g/ha) was 100. For the same molecule, the “Flatsedge plant response rating” value ([25]; Rate 500 g/ha) was 100, the “Plant response rating, Flatsedge” value ([25]; Rate 62 g/ha) was 100 and the “Plant response rating, Flatsedge” value ([25]; Rate 125 g/ha) was 100. The “Plant response rating (scale 0 to 100), Flatsedge” value ([25]; Rate 16 g/ha, visually evaluated after 12 to 14 days, 0 = no effect, 100 = complete control) was 100 and the “Plant response rating (scale 0 to 100), Flatsedge” value ([25]; under head Rate 16 g/ha, (own rate not given), after 12 to 14 days) was 100.
For `CC(C)(C)c1ccn(C2CCN(c3cccc(Cl)c3)C2=O)n1` (stereo not shown) [Compound 43], the “Plant response rating, Surinam grass” value [1, 26] was 0, the “Plant response rating, Surinam grass” value [1, 27] was 0 and the “Plant response rating, Barnyardgrass” value [2, 26] was 0. The “Plant response rating, Barnyardgrass” value [2, 27] was 70, the “Plant response rating, Blackgrass” value [3, 26] was 0 and the “Plant response rating, Blackgrass” value [3, 27] was 0. The “Plant response rating, Cocklebur” value [4, 26] was 0, the “Plant response rating, Cocklebur” value [4, 27] was 0 and the “Plant response rating, Corn” value [5, 26] was 0. For the same molecule, the “Plant response rating, Corn” value [5, 27] was 0, the “Plant response rating, Crabgrass” value [6, 26] was 0 and the “Plant response rating, Crabgrass” value [6, 27] was 50. The “Plant response rating, Foxtail, Giant” value [7, 26] was 0, the “Plant response rating, Foxtail, Giant” value [7, 27] was 0 and the “Plant response rating, Lambsquarters” value [8, 26] was 50. The “Plant response rating, Lambsquarters” value [8, 27] was 80, the “Plant response rating, Morningglory” value [9, 26] was 0 and the “Plant response rating, Morningglory” value [9, 27] was 0. The “Plant response rating, Pigweed” value [10, 26] was 50, the “Plant response rating, Pigweed” value [10, 27] was 80 and the “Plant response rating, Velvetleaf” value [11, 26] was 0. For the same molecule, the “Plant response rating, Velvetleaf” value [11, 27] was 0, the “Plant response rating, Wheat” value [12, 26] was 0 and the “Plant response rating, Wheat” value [12, 27] was 0. The “Plant response rating, Wild Oat” value [13, 26] was 0, the “Plant response rating, Wild Oat” value [13, 27] was 0 and the “Plant response rating, Surinam grass” value ([14]; Preemergence, Rate 500 g/ha) was 20. For the same molecule, the “Plant response rating, Surinam grass” value ([14]; preemergence, Rate 125 g/ha) was 0, the “Plant response rating, Barnyardgrass” value ([15]; Preemergence, Rate 500 g/ha) was 100 and the “Plant response rating, Barnyardgrass” value ([15]; preemergence, Rate 125 g/ha) was 60. For the same molecule, the “Plant response rating, Cocklebur” value ([16]; Preemergence, Rate 500 g/ha) was 0, the “Plant response rating, Corn” value ([17]; Preemergence, Rate 500 g/ha) was 0 and the “Plant response rating, Corn” value ([17]; preemergence, Rate 125 g/ha) was 0. For the same molecule, the “Plant response rating, Crabgrass” value ([18]; Preemergence, Rate 500 g/ha) was 90, the “Plant response rating, Crabgrass” value ([18]; preemergence, Rate 125 g/ha) was 0 and the “Plant response rating, Foxtail, Giant” value ([19]; Preemergence, Rate 500 g/ha) was 100. For the same molecule, the “Plant response rating, Foxtail, Giant” value ([19]; preemergence, Rate 125 g/ha) was 0, the “Plant response rating, Lambsquarters” value ([20]; Preemergence, Rate 500 g/ha) was 100 and the “Plant response rating, Lambsquarters” value ([20]; preemergence, Rate 125 g/ha) was 100. The “Plant response rating, Morningglory” value [21] was 0, the “Plant response rating, Pigweed” value [22] was 100 and the “Plant response rating, Rice” value [23] was 70. The “Plant response rating, Velvetleaf” value [24] was 0, the “Flatsedge plant response rating” value ([25]; Rate 250 g/ha) was 100 and the “Flatsedge plant response rating” value ([25]; Rate 500 g/ha) was 100. For the same molecule, the “Plant response rating, Flatsedge” value ([25]; Rate 62 g/ha) was 90 and the “Plant response rating, Flatsedge” value ([25]; Rate 125 g/ha) was 100.
